Like-named read-outs stand apart in the source and are kept apart here. Where a SMILES comes first, the peptide text is derived from it. Bridges are numbered along the chain shown (N, C = ends).
How the values were obtained:
[1] = target: 4D11 IgG; assay: SPR competition binding assay, mAb 4D11; parameters: species or system mouse; details: read-out: Kd against 4D11 IgG
Description: (§1) Affinities for peptide epitopes and dimer peptides to 4D11 and 9H4 IgG were measured by surface plasmon resonance (SPR) (Biacore T200, GE Healthcare, Parramatta, Australia) using a competition assay method developed previously. First, 3D7 MSP2 was immobilised on a CM5 chip. To determine binding, eight three-fold dilutions of peptide, from 10 µM stock were added with 50 nM 4D11/9H4 IgG to compete with the immobilised antigen. A standard curve was established by flowing eight two-fold dilutions of 4D11 or 9H4 IgG from a 100 nM stock solution.
Following the MD simulations, each peptide was synthesised by standard Fmoc synthesis. Orthogonal protection of cysteines was used to ensure that the desired disulfide bond was formed, leaving a single free cysteine for conjugation to an appropriate carrier for immunisation. […] Consequently, disulfide bond formation and cyclisation coupling were performed in solution. To determine if the additions incorporated into the dimer sequence hindered binding to 4D11, SPR was used to measure their binding affinity to the mAb (Table 2). […] For immunisations, the commonly used carrier protein, keyhole limpet hemocyanin (KLH) was chosen. As conjugation to KLH required a free thiol, an additional cysteine residue was included in all of the peptides (Figure 2).

[2] = target: 9H4 IgG; assay: SPR competition binding assay, mAb 9H4; parameters: species or system mouse; details: SPR competition assay (Biacore T200); 3D7 MSP2 immobilised on CM5 chip; eight three-fold dilutions of peptide from 10 µM with 50 nM 9H4 IgG; alanine scan of 16-residue MSP2_207–222; read-out: Kd against 9H4 IgG
Description: as §1
In our previous work, the minimal epitope and key residues involved in 4D11 binding were defined as the 8-residue peptide 3D7-MSP2_215–222, with Lys216, Glu217 and Asn218 crucial for binding. To characterise the epitope of 9H4 and compare it with that of 4D11, the same alanine-scan peptides were used to probe 9H4 binding (Figure 1A,B). Affinities for 9H4 binding were measured by SPR, using a competition binding assay described previously.

[3] = SPR competition assay (Biacore T200), 3D7 MSP2 immobilised on CM5 chip, eight three-fold dilutions of peptide from 10 µM with 50 nM 4D11 IgG, alanine scan of 16-residue MSP2_207–222
[4] = SPR competition binding assay, peptides for KLH conjugation (Table 2), 3D7 MSP2 on CM5 chip, 50 nM 4D11 IgG

SMILES	Kd [1, 3]	Kd [2]	Kd [1, 4]
CC(=O)N[C@@H](CO)C(=O)N[C@@H](CCC(N)=O)C(=O)N[C@@H](CCCCN)C(=O)N[C@@H](CCC(=O)O)C(=O)N[C@H]1CSSC[C@@H](C(=O)NCC(=O)N[C@@H](C)C(=O)N[C@@H](C)C(N)=O)NC(=O)[C@H](CC(N)=O)NC(=O)[C@H](CCC(=O)O)NC(=O)[C@H](CCCCN)NC(=O)[C@H](CC(N)=O)NC(=O)CNC(=O)[C@H](CC(=O)O)NC(=O)[C@H](C)NC1=O [Peptide T212A] (Ac-SQKECADGNKENCGAA-NH2; disulfide 5-13)	500 nM	4800 nM	
CC(=O)N[C@@H](CO)C(=O)N[C@@H](CCC(N)=O)C(=O)N[C@@H](CCCCN)C(=O)N[C@@H](CCC(=O)O)C(=O)N[C@H]1CSSC[C@@H](C(=O)NCC(=O)N[C@@H](C)C(=O)N[C@@H](C)C(N)=O)NC(=O)[C@H](C)NC(=O)[C@H](CCC(=O)O)NC(=O)[C@H](CCCCN)NC(=O)[C@H](CC(N)=O)NC(=O)CNC(=O)[C@H](CC(=O)O)NC(=O)[C@H]([C@@H](C)O)NC1=O [Peptide N218A] (Ac-SQKECTDGNKEACGAA-NH2; disulfide 5-13)	6000 nM	2700 nM	
C[C@@H]1NC(=O)CNC(=O)[C@@H]2CSSC[C@H](NC(=O)[C@H](CC(N)=O)NC(=O)[C@H](CCC(=O)O)NC(=O)[C@H](CCCCN)NC(=O)[C@H](CC(N)=O)NC(=O)CNC(=O)[C@H](CS)NC(=O)CNC(=O)[C@H](C)NC1=O)C(=O)NCC(=O)N[C@@H](C)C(=O)N[C@@H](C)C(=O)NCC(=O)NCC(=O)NCC(=O)N[C@@H](CC(N)=O)C(=O)N[C@@H](CCCCN)C(=O)N[C@@H](CCC(=O)O)C(=O)N[C@@H](CC(N)=O)C(=O)N2 [Peptide C3] (cyclo(AAGCGNKENCGAAGGGNKENCG); disulfide 10-21)			1040 nM
C[C@@H]1NC(=O)CNC(=O)[C@@H]2CSSC[C@H](NC(=O)[C@H](CC(N)=O)NC(=O)[C@H](CCC(=O)O)NC(=O)[C@H](CCCCN)NC(=O)[C@H](CC(N)=O)NC(=O)CNC(=O)CNC(=O)[C@H](C)NC1=O)C(=O)NCC(=O)N[C@@H](C)C(=O)N[C@@H](C)C(=O)N[C@@H](CS)C(=O)NCC(=O)N[C@@H](CC(N)=O)C(=O)N[C@@H](CCCCN)C(=O)N[C@@H](CCC(=O)O)C(=O)N[C@@H](CC(N)=O)C(=O)N2 [Peptide C2] (cyclo(AACGNKENCGAAGGNKENCG); disulfide 9-19)			680 nM
CC(=O)N[C@@H](CO)C(=O)N[C@@H](CCC(N)=O)C(=O)N[C@@H](CCCCN)C(=O)N[C@@H](CCC(=O)O)C(=O)N[C@H]1CSSC[C@@H](C(=O)NCC(=O)N[C@@H](C)C(=O)N[C@@H](C)C(N)=O)NC(=O)[C@H](CC(N)=O)NC(=O)[C@H](CCC(=O)O)NC(=O)[C@H](CCCCN)NC(=O)[C@H](CC(N)=O)NC(=O)[C@H](C)NC(=O)[C@H](CC(=O)O)NC(=O)[C@H]([C@@H](C)O)NC1=O [Peptide G214A] (Ac-SQKECTDANKENCGAA-NH2; disulfide 5-13)	400 nM	70 nM	
CC(=O)N[C@@H](CO)C(=O)N[C@@H](C)C(=O)N[C@@H](CCCCN)C(=O)N[C@@H](CCC(=O)O)C(=O)N[C@H]1CSSC[C@@H](C(=O)NCC(=O)N[C@@H](C)C(=O)N[C@@H](C)C(N)=O)NC(=O)[C@H](CC(N)=O)NC(=O)[C@H](CCC(=O)O)NC(=O)[C@H](CCCCN)NC(=O)[C@H](CC(N)=O)NC(=O)CNC(=O)[C@H](CC(=O)O)NC(=O)[C@H]([C@@H](C)O)NC1=O [Peptide Q208A] (Ac-SAKECTDGNKENCGAA-NH2; disulfide 5-13)	400 nM	2900 nM	
CC(=O)N[C@@H](CO)C(=O)N[C@@H](CCC(N)=O)C(=O)N[C@@H](CCCCN)C(=O)N[C@@H](CCC(=O)O)C(=O)N[C@H]1CSSC[C@@H](C(=O)NCC(=O)N[C@@H](C)C(=O)N[C@@H](C)C(N)=O)NC(=O)[C@H](CC(N)=O)NC(=O)[C@H](CCC(=O)O)NC(=O)[C@H](CCCCN)NC(=O)[C@H](CC(N)=O)NC(=O)CNC(=O)[C@H](CC(=O)O)NC(=O)[C@H]([C@@H](C)O)NC1=O [3D7-MSP2_207–222 (WT)] (Ac-SQKECTDGNKENCGAA-NH2; disulfide 5-13)	900 nM	1500 nM	
CC(=O)N[C@@H](CO)C(=O)N[C@@H](CCC(N)=O)C(=O)N[C@@H](CCCCN)C(=O)N[C@@H](CCC(=O)O)C(=O)N[C@H]1CSSC[C@@H](C(=O)NCC(=O)N[C@@H](C)C(=O)N[C@@H](C)C(N)=O)NC(=O)[C@H](CC(N)=O)NC(=O)[C@H](CCC(=O)O)NC(=O)[C@H](CCCCN)NC(=O)[C@H](C)NC(=O)CNC(=O)[C@H](CC(=O)O)NC(=O)[C@H]([C@@H](C)O)NC1=O [Peptide N215A] (Ac-SQKECTDGAKENCGAA-NH2; disulfide 5-13)	500 nM	100 nM	
CC(=O)N[C@@H](CO)C(=O)N[C@@H](CCC(N)=O)C(=O)N[C@@H](CCCCN)C(=O)N[C@@H](CCC(=O)O)C(=O)N[C@H]1CSSC[C@@H](C(=O)NCC(=O)N[C@@H](C)C(=O)N[C@@H](C)C(N)=O)NC(=O)[C@H](CC(N)=O)NC(=O)[C@H](CCC(=O)O)NC(=O)[C@H](C)NC(=O)[C@H](CC(N)=O)NC(=O)CNC(=O)[C@H](CC(=O)O)NC(=O)[C@H]([C@@H](C)O)NC1=O [Peptide K216A] (Ac-SQKECTDGNAENCGAA-NH2; disulfide 5-13)	21000 nM	90 nM	
CC(=O)N[C@@H](CO)C(=O)N[C@@H](CCC(N)=O)C(=O)N[C@@H](CCCCN)C(=O)N[C@@H](CCC(=O)O)C(=O)N[C@H]1CSSC[C@@H](C(=O)NCC(=O)N[C@@H](C)C(=O)N[C@@H](C)C(N)=O)NC(=O)[C@H](CC(N)=O)NC(=O)[C@H](C)NC(=O)[C@H](CCCCN)NC(=O)[C@H](CC(N)=O)NC(=O)CNC(=O)[C@H](CC(=O)O)NC(=O)[C@H]([C@@H](C)O)NC1=O [Peptide E217A] (Ac-SQKECTDGNKANCGAA-NH2; disulfide 5-13)	219000 nM	90 nM	
CC(=O)N[C@@H](CC(N)=O)C(=O)N[C@@H](CCCCN)C(=O)N[C@@H](CCC(=O)O)C(=O)N[C@@H](CC(N)=O)C(=O)N[C@H]1CSSC[C@@H](C(=O)NCC(=O)N[C@@H](C)C(=O)N[C@@H](C)C(=O)N[C@@H](CS)C(N)=O)NC(=O)[C@H](CC(N)=O)NC(=O)[C@H](CCC(=O)O)NC(=O)[C@H](CCCCN)NC(=O)[C@H](CC(N)=O)NC(=O)CNC(=O)CNC(=O)[C@H](C)NC(=O)[C@H](C)NC(=O)CNC1=O [Peptide L2] (Ac-NKENCGAAGGNKENCGAAC-NH2; disulfide 5-15)			670 nM
CC(=O)N[C@@H](CO)C(=O)N[C@@H](CCC(N)=O)C(=O)N[C@@H](CCCCN)C(=O)N[C@@H](C)C(=O)N[C@H]1CSSC[C@@H](C(=O)NCC(=O)N[C@@H](C)C(=O)N[C@@H](C)C(N)=O)NC(=O)[C@H](CC(N)=O)NC(=O)[C@H](CCC(=O)O)NC(=O)[C@H](CCCCN)NC(=O)[C@H](CC(N)=O)NC(=O)CNC(=O)[C@H](CC(=O)O)NC(=O)[C@H]([C@@H](C)O)NC1=O [Peptide E210A] (Ac-SQKACTDGNKENCGAA-NH2; disulfide 5-13)	500 nM	1400 nM	
CC(=O)N[C@@H](CO)C(=O)N[C@@H](CCC(N)=O)C(=O)N[C@@H](CCCCN)C(=O)N[C@@H](CCC(=O)O)C(=O)N[C@H]1CSSC[C@@H](C(=O)N[C@@H](C)C(=O)N[C@@H](C)C(=O)N[C@@H](C)C(N)=O)NC(=O)[C@H](CC(N)=O)NC(=O)[C@H](CCC(=O)O)NC(=O)[C@H](CCCCN)NC(=O)[C@H](CC(N)=O)NC(=O)CNC(=O)[C@H](CC(=O)O)NC(=O)[C@H]([C@@H](C)O)NC1=O [Peptide G220A] (Ac-SQKECTDGNKENCAAA-NH2; disulfide 5-13)	42200 nM	2900 nM	
CC(=O)N[C@@H](CC(N)=O)C(=O)N[C@@H](CCCCN)C(=O)N[C@@H](CCC(=O)O)C(=O)N[C@@H](CC(N)=O)C(=O)N[C@H]1CSSC[C@@H](C(=O)NCC(=O)N[C@@H](C)C(=O)N[C@@H](C)C(=O)N[C@@H](CS)C(N)=O)NC(=O)[C@H](CC(N)=O)NC(=O)[C@H](CCC(=O)O)NC(=O)[C@H](CCCCN)NC(=O)[C@H](CC(N)=O)NC(=O)CNC(=O)CNC(=O)CNC(=O)[C@H](C)NC(=O)[C@H](C)NC(=O)CNC1=O [Peptide L3] (Ac-NKENCGAAGGGNKENCGAAC-NH2; disulfide 5-16)			580 nM
CC(=O)N[C@@H](CO)C(=O)N[C@@H](CCC(N)=O)C(=O)N[C@@H](CCCCN)C(=O)N[C@@H](CCC(=O)O)C(=O)N[C@H]1CSSC[C@@H](C(=O)NCC(=O)N[C@@H](C)C(=O)N[C@@H](C)C(N)=O)NC(=O)[C@H](CC(N)=O)NC(=O)[C@H](CCC(=O)O)NC(=O)[C@H](CCCCN)NC(=O)[C@H](CC(N)=O)NC(=O)CNC(=O)[C@H](C)NC(=O)[C@H]([C@@H](C)O)NC1=O [Peptide D213A] (Ac-SQKECTAGNKENCGAA-NH2; disulfide 5-13)	500 nM		

Reference: publication PMC8402609, “Guiding the Immune Response to a Conserved Epitope in MSP2, an Intrinsically Disordered Malaria Vaccine Candidate” (Vaccines, 2021)
